This experiment concerns the target CC3396. Format: biochemical, Caulobacter vibrioides (Caulobacter crescentus).

In general, Ki refers to the equilibrium dissociation constant of an inhibitor or competing ligand from its target. Lower therefore signals tighter binding.

`Nc1nc2c(ncn2[C@@H]2O[C@@H]3CO[P@@](O)(=S)O[C@H]4[C@@H](O)[C@H](n5cnc6c(=O)[nH]c(N)nc65)O[C@@H]4CO[P@@](O)(=S)O[C@H]3[C@H]2O)c(=O)[nH]1` [c-(RPRP)-di-Gps]: the inhibitory constant (Ki) was about 0.48 µM. Compound `Nc1nc2c(ncn2[C@@H]2O[C@@H]3CO[P@@](O)(=S)O[C@H]4[C@@H](O)[C@H](n5cnc6c(=O)[nH]c(N)nc65)O[C@@H]4CO[P@](O)(=S)O[C@H]3[C@H]2O)c(=O)[nH]1` [c-(RPSP)-di-Gps] yielded a Ki of about 0.82 µM.

These data come from article PMC3568510 (Biochemistry, 2013).
